Measured values published in PMC11344480 (ACS infectious diseases, 2021).
Converted amounts (≈) assume the structure as drawn.

Experiments:
[1] = biological target: NLRP3 inflammasome (Homo sapiens, UniProt Q96P20); assay type: cell-based
[2] = XTT reduction viability assay; assay type: cell-based; conditions: human
[3] = tested on: C. albicans; test: Modified MIC50 assay; assay type: cell-based, C. albicans SC5314; conditions: 24 h
[4] = tested on: C. auris; test: Modified MIC50 assay; assay type: cell-based; conditions: Candidozyma auris, 24 h
[5] = tested on: C. dubliniensis; test: Modified MIC50 assay; assay type: cell-based, C. dubliniensis CD36; conditions: Candida dubliniensis, 24 h
[6] = tested on: C. tropicalis; test: Modified MIC50 assay; assay type: cell-based, C. tropicalis MYA3404; conditions: Candida tropicalis, 24 h
[7] = tested on: Candida species; conditions: via targeting of AHAS; cited from earlier work
[8] = tested on: C. albicans AHAS; conditions: cited from earlier work
[9] = tested on: C. albicans; conditions: mice, prophylactic administration; cited from earlier work
[10] = tested on: C. albicans; conditions: prior work of the laboratory; cited from earlier work

NLRP3 inflammasome, sequence (Q96P20 whole entry): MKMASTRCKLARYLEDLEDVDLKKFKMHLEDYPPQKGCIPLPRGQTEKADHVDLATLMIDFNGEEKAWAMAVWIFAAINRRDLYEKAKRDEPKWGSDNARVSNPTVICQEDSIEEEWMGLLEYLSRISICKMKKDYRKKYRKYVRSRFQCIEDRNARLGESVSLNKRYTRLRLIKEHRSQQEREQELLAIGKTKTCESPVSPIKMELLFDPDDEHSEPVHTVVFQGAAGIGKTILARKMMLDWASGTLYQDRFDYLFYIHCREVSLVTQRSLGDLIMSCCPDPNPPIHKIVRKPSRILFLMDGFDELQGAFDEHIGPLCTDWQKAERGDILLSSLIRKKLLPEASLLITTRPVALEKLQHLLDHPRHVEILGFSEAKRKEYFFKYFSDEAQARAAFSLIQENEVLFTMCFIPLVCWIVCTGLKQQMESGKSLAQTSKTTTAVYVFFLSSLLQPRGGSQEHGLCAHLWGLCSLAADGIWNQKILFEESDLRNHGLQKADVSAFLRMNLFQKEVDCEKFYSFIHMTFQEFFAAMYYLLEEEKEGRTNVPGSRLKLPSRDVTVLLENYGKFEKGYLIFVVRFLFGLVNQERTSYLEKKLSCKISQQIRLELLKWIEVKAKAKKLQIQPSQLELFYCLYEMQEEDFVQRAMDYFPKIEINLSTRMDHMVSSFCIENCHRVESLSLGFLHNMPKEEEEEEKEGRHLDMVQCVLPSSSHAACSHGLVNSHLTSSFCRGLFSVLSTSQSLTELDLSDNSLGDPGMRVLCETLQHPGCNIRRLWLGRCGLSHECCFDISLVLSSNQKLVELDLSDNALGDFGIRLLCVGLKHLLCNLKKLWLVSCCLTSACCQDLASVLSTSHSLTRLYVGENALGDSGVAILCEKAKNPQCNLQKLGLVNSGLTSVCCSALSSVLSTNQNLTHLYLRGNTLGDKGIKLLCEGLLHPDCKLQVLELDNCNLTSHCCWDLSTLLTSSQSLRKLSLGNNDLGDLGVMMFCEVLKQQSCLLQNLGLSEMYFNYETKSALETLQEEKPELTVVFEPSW

Row | Compound | IC50 [1] [µM] | viability at 5 h, 50 µM [2] [%] | MIC50 ([3]; C. albicans, YNB, mean ± SD) [µM] | MIC50 ([3]; Candida albicans) [µM] | MIC50 [4] [µM] | MIC50 [5] [µM] | MIC50 [6] [µM] | growth of the Candida species [7] | inhibition of purified C. albicans AHAS protein [8] | fungal burden in the kidney, spleen, liver, and lungs [9] | protection against disseminated C. albicans infection [9] | preventing fungal growth or filamentation [10]
1 | CCOC(=O)c1ccccc1S(=O)(=O)NC(=O)Nc1nc(Cl)cc(OC)n1 [Compound 13, chlorimuron ethyl] | > 50 | 103 ± 7.3 | 0.5 ± 0.2 (≈ 0.207 µg/mL) | 0.5 (≈ 0.207 µg/mL) | 0.8 ± 0.3 (≈ 0.332 µg/mL) | 1.3 ± 0.7 (≈ 0.539 µg/mL) | 21.1 ± 3 (≈ 8.75 µg/mL) | effective at reducing growth | potent inhibitors | significantly reduced fungal burden | provided protection | –
2 | COc1ccc(Cl)cc1C(=O)NCCc1ccc(S(=O)(=O)NC(=O)NC2CCCCC2)cc1 [glyburide] | – | – | – | – | – | – | – | – | – | – | – | completely ineffective
